Laboratory results reported in ChEMBL document CHEMBL3880442, “NHE3-binding compounds and methods for inhibiting phosphate transport” (2014).
Active and inactive are the calls of the source. The rule behind the calls is not given here.

Experiments:
[1] = system: Rattus norvegicus; experiment: Effect on sodium level in urine in Sprague-Dawley rat at 10 mg/kg administered via oral gavage measured after 16 hrs by gravimetric analysis relative to vehicle-treated control; type: functional
[2] = system: Rattus norvegicus; experiment: Inhibition of NHE3-mediated intestinal phosphate uptake in rat at 10 mg/kg, po administered with 33-labeled Pi in presence of glucose and calcium; type: functional, organism-based
[3] = system: Rattus norvegicus; experiment: Inhibition of NHE3-mediated intestinal phosphate uptake in rat at 10 mg/kg, po administered with 33-labeled Pi in presence of calcium; type: functional, organism-based
[4] = system: Rattus norvegicus; experiment: Inhibition of NHE3-mediated intestinal phosphate uptake in rat at 10 mg/kg, po administered with 33-labeled Pi; type: functional, organism-based
[5] = system: Rattus norvegicus; experiment: Effect on phosphate level in urine in Sprague-Dawley rat at 10 mg/kg administered via oral gavage measured after 16 hrs by gravimetric analysis relative to vehicle-treated control; type: functional
[6] = system: Rattus norvegicus; experiment: Effect on phosphate level in urine in Sprague-Dawley rat at 3 mg/kg administered via oral gavage measured after 16 hrs by gravimetric analysis relative to vehicle-treated control; type: functional
[7] = system: Rattus norvegicus; experiment: Effect on sodium level in urine in Sprague-Dawley rat at 3 mg/kg administered via oral gavage measured after 16 hrs by gravimetric analysis relative to vehicle-treated control; type: functional
[8] = system: Rattus norvegicus; experiment: Reduction in urinary calcium mass in rat at 0.3 to 3 mg/kg administered with diet relative to vehicle-control; type: functional, organism-based
[9] = system: Rattus norvegicus; experiment: Reduction in stomach phosphorus content in adenine-induced uremic Sprague-Dawley rat model at 5 mg/kg administered with chow diet; type: functional, organism-based
[10] = species: Rattus norvegicus; experiment: Reduction in stomach phosphorus content in Sprague-Dawley rat model of uremia-associated vascular calcification measured after 27 days in presence of calcitriol; type: functional
[11] = system: Rattus norvegicus; experiment: Anti-remodeling activity in adenine-induced uremic Sprague-Dawley rat model assessed as decrease in ratio of aortic arch weight to body weight at 2 to 5 mg/kg administered with chow diet; type: functional, organism-based
[12] = species: Rattus norvegicus; experiment: Reduction in plasma creatinine level in Sprague-Dawley rat model of uremia-associated vascular calcification measured after 27 days in presence of calcitriol; type: functional
[13] = species: Rattus norvegicus; experiment: Reduction in stomach calcium content in Sprague-Dawley rat model of uremia-associated vascular calcification measured after 27 days in presence of calcitriol; type: functional
[14] = species: Rattus norvegicus; experiment: Effect on kidney hypertrophy in Sprague-Dawley rat model of uremia-associated vascular calcification assessed as reduction in kidney to body weight ratio measured after 27 days in presence of calcitriol; type: functional
[15] = species: Rattus norvegicus; experiment: Reduction in aortic phosphorus content in Sprague-Dawley rat model of uremia-associated vascular calcification measured after 27 days in presence of calcitriol; type: functional
[16] = system: Rattus norvegicus; experiment: Reduction in serum creatinine level in adenine-induced uremic Sprague-Dawley rat model at 2 to 5 mg/kg administered with chow diet; type: functional, organism-based
[17] = species: Rattus norvegicus; experiment: Increase in plasma calcium level in Sprague-Dawley rat model of uremia-associated vascular calcification measured after 27 days in presence of calcitriol; type: functional
[18] = system: Rattus norvegicus; experiment: Antihypertrophic activity in dietary salt-induced Sprague-Dawley rat partial ablation model of chronic kidney disease assessed as change in heart morphology at 0.3 to 3 mg/kg administered with chow diet measured after 7 days; type: functional, organism-based
[19] = system: Rattus norvegicus; experiment: Antihypertensive activity in dietary salt-induced Sprague-Dawley rat partial ablation model of chronic kidney disease assessed as reduction in blood pressure at 0.3 to 3 mg/kg administered with chow diet measured after 7 days; type: functional, organism-based
[20] = Reduction in fluid overload in dietary salt-induced Sprague-Dawley rat partial ablation model of chronic kidney disease at 0.3 to 3 mg/kg administered with chow diet measured after 7 days; type: functional, organism-based
[21] = system: Rattus norvegicus; experiment: Anti-remodeling activity in adenine-induced uremic Sprague-Dawley rat model assessed as decrease in ratio of heart weight to body weight at 2 to 5 mg/kg administered with chow diet; type: functional, organism-based
[22] = species: Rattus norvegicus; experiment: Increase in plasma aldosterone level in Sprague-Dawley rat model of uremia-associated vascular calcification measured after 27 days in presence of calcitriol; type: functional
[23] = system: Rattus norvegicus; experiment: Anti-remodeling activity in adenine-induced uremic Sprague-Dawley rat model assessed as decrease in ratio of stomach weight to body weight at 2 to 5 mg/kg administered with chow diet; type: functional, organism-based
[24] = system: Rattus norvegicus; experiment: Reduction in albuminuria in dietary salt-induced Sprague-Dawley rat partial ablation model of chronic kidney disease at 0.3 to 3 mg/kg administered with chow diet measured after 7 days; type: functional, organism-based
[25] = species: Rattus norvegicus; experiment: Reduction in plasma phosphorus level in Sprague-Dawley rat model of uremia-associated vascular calcification measured after 27 days in presence of calcitriol; type: functional
[26] = system: Rattus norvegicus; experiment: Reduction in stomach calcium content in adenine-induced uremic Sprague-Dawley rat model at 5 mg/kg administered with chow diet; type: functional, organism-based
[27] = system: Rattus norvegicus; experiment: Reduction in aortic phosphorus content in adenine-induced uremic Sprague-Dawley rat model at 5 mg/kg administered with chow diet; type: functional, organism-based
[28] = species: Rattus norvegicus; experiment: Reduction in plasma FGF23 level in Sprague-Dawley rat model of uremia-associated vascular calcification measured after 27 days in presence of calcitriol; type: functional
[29] = system: Rattus norvegicus; experiment: Reduction in urinary phosphorus mass in rat at 0.3 to 3 mg/kg administered with diet relative to vehicle-control; type: functional, organism-based
[30] = species: Rattus norvegicus; experiment: Reduction in creatinine clearance in Sprague-Dawley rat model of uremia-associated vascular calcification measured after 27 days in presence of calcitriol; type: functional
[31] = system: Rattus norvegicus; experiment: Reduction in aortic calcium content in adenine-induced uremic Sprague-Dawley rat model at 5 mg/kg administered with chow diet; type: functional, organism-based
[32] = system: Rattus norvegicus; experiment: Anti-remodeling activity in adenine-induced uremic Sprague-Dawley rat model assessed as decrease in ratio of kidney weight to body weight at 2 to 5 mg/kg administered with chow diet; type: functional, organism-based
[33] = system: Rattus norvegicus; experiment: Effect on urinary excretion of phosphorus in dietary salt-induced Sprague-Dawley rat partial ablation model of chronic kidney disease at 0.3 to 3 mg/kg administered with chow diet measured after 7 days; type: functional, organism-based
[34] = species: Rattus norvegicus; experiment: Increase in plasma albumin level in Sprague-Dawley rat model of uremia-associated vascular calcification measured after 27 days in presence of calcitriol; type: functional
[35] = system: Rattus norvegicus; experiment: Antihypertrophic activity in dietary salt-induced Sprague-Dawley rat partial ablation model of chronic kidney disease assessed as change in kidney morphology at 0.3 to 3 mg/kg administered with chow diet measured after 7 days; type: functional, organism-based
[36] = species: Rattus norvegicus; experiment: Reduction in aortic calcium content in Sprague-Dawley rat model of uremia-associated vascular calcification measured after 27 days in presence of calcitriol; type: functional
[37] = species: Rattus norvegicus; experiment: Effect on heart hypertrophy in Sprague-Dawley rat model of uremia-associated vascular calcification assessed as reduction in heart to body weight ratio measured after 27 days in presence of calcitriol; type: functional
[38] = system: Rattus norvegicus; experiment: Reduction in serum phosphorus level in adenine-induced uremic Sprague-Dawley rat model at 2 to 5 mg/kg administered with chow diet; type: functional, organism-based

With `N=C(N)Nc1nc(-c2ccc(N3CCN(CCOCCOCCOCCNC(=O)CCOCCOCCOCCOCCOCCC(=O)NCCOCCOCCOCCN4CCN(c5ccc(-c6nc(NC(=N)N)nc7ccc(Cl)cc67)cc5)CC4)CC3)cc2)c2cc(Cl)ccc2n1` the Activity [1] was 100%.
In the case of `CN1Cc2c(Cl)cc(Cl)cc2[C@@H](c2cccc(S(=O)(=O)NCCOCCOCCNC(=O)NCCCCNC(=O)NCCOCCOCCNS(=O)(=O)c3cccc([C@H]4CN(C)Cc5c(Cl)cc(Cl)cc54)c3)c2)C1`, the inhibition [2] is reported as “Active”, the inhibition [3] is reported as “Active” and the inhibition [4] is reported as “Active”.
In the case of `O=C(NCCCCNC(=O)NCCOCCOCCOCCNS(=O)(=O)c1ccc(O[C@H]2c3ccccc3C[C@@H]2N2CCCCC2)cc1)NCCOCCOCCOCCNS(=O)(=O)c1ccc(O[C@H]2c3ccccc3C[C@@H]2N2CCCCC2)cc1`, the Activity [1] is reported as 33 - 79% and the Activity [5] is reported as 43 - 52%.
Work on `CN(C)[C@H]1Cc2c(Cl)cc(Cl)cc2[C@@H]1Oc1ccc(S(=O)(=O)N(C)CCOCCOCCNC(=O)NCCCCNC(=O)NCCOCCOCCN(C)S(=O)(=O)c2ccc(O[C@H]3c4cc(Cl)cc(Cl)c4C[C@@H]3N(C)C)cc2)cc1` yielded an Activity [1] of 49% and an Activity [5] of 49%.
For `CN1Cc2c(Cl)cc(Cl)cc2[C@H](c2cccc(S(=O)(=O)NCCOCCOCCOCCNC(=O)CN(CCOCCOCCN(CC(=O)NCCOCCOCCOCCNS(=O)(=O)c3cccc([C@@H]4CN(C)Cc5c(Cl)cc(Cl)cc54)c3)CC(=O)NCCOCCOCCOCCNS(=O)(=O)c3cccc([C@@H]4CN(C)Cc5c(Cl)cc(Cl)cc54)c3)CC(=O)NCCOCCOCCOCCNS(=O)(=O)c3cccc([C@@H]4CN(C)Cc5c(Cl)cc(Cl)cc54)c3)c2)C1`, the Activity [1] was 51% and the Activity [5] was 95%.
For `CN(CC(=O)NCCOCCOCCOCCN1CCN(c2ccc(-c3nc(NC(=N)N)nc4ccc(Cl)cc34)cc2)CC1)CC(=O)NCCOCCOCCOCCN1CCN(c2ccc(-c3nc(NC(=N)N)nc4ccc(Cl)cc34)cc2)CC1`, the Activity [1] was 66% and the Activity [5] was 101%.
In the case of `O=C(O)CN(CCN(CC(=O)O)CC(=O)NCCOCCOCCNS(=O)(=O)c1ccc(O[C@H]2c3ccccc3C[C@@H]2N2CCCCC2)cc1)CC(=O)NCCOCCOCCNS(=O)(=O)c1ccc(O[C@H]2c3ccccc3C[C@@H]2N2CCCCC2)cc1`, the Activity [1] is reported as 68 - 93% and the Activity [5] is reported as 55 - 85%.
Compound `CN1Cc2c(Cl)cc(Cl)cc2[C@@H](c2cccc(S(=O)(=O)NCCOCCOCCNC(=O)NCCCC(N)(CCCNC(=O)NCCOCCOCCNS(=O)(=O)c3cccc([C@@H]4CN(C)Cc5c(Cl)cc(Cl)cc54)c3)CCCNC(=O)NCCOCCOCCNS(=O)(=O)c3cccc([C@@H]4CN(C)Cc5c(Cl)cc(Cl)cc54)c3)c2)C1` has an Activity [6] of 50% and an Activity [7] of 56%.
In the case of `CN1Cc2c(Cl)cc(Cl)cc2[C@H](c2cccc(S(=O)(=O)NCCOCCOCCNC(=O)NCCCCNC(=O)NCCOCCOCCNS(=O)(=O)c3cccc([C@@H]4CN(C)Cc5c(Cl)cc(Cl)cc54)c3)c2)C1`, the Activity [8] is reported as “Active”, the Activity [9] is reported as “Active” and the Activity [10] is reported as “Active”. The Activity [11] was “Active”, the Activity [12] was “Active” and the Activity [13] was “Active”. For the same compound, the Activity [14] was “Active”, the Activity [15] was “Active” and the Activity [16] was “Active”. The Activity [17] was “Active”, the Activity [18] was “Active” and the Activity [19] was “Active”. The Activity [20] was “Active”, the Activity [21] was “Active” and the Activity [22] was “Active”. For the same compound, the Activity [23] was “Active”, the Activity [24] was “Active” and the Activity [25] was “Active”. The Activity [26] was “Active”, the Activity [27] was “Active” and the Activity [28] was “Active”. The Activity [29] was “Active”, the Activity [30] was “Active” and the Activity [31] was “Active”. The Activity [32] was “Active”, the Activity [33] was “Active” and the Activity [34] was “Active”. The Activity [35] was “Active”, the Activity [36] was “Active” and the Activity [37] was “Active”. For the same compound, the Activity [38] was “Active”.
